In data set [1] the test system is Escherichia coli AG100, AG112 and derived fluoroquinolone-resistant mutants with ΔacrAB. As to the kind of experiment: MIC by broth microdilution, AcrAB-deleted strains. Type of data set: cell-based. The following applies: Escherichia coli. The method, then: (§1) Susceptibility testing. MICs of selected antimicrobial agents were determined by a standard broth microdilution procedure with cation-adjusted Mueller-Hinton broth (Becton Dickinson, Cockeysville, Md.) and an inoculum of 5×10^5 CFU/ml according to NCCLS performance and interpretive guidelines (NCCLS. 1997. Methods for dilution antimicrobial susceptibility. Tests for bacteria that grow aerobically—Fourth Edition; Approved Standard. NCCLS document M7-A4 (ISBN 1-56238-309-4). NCCLS, 940 West Valley Road, Suite 1400, Wayne, Pa. 19087). Antimicrobial agents on the commercially available microtiter plates (Merlin Diagnostics GmbH, Bornheim, Germany) included the FQs ciprofloxacin (CIP), enoxacin, fleroxacin, nor-flo-xacin, ofloxacin (OFL), pefloxacin, sparfloxacin (SPX), and trovafloxacin (TVA). They also included tetracycline (TET), chloramphenicol (CML), trimethoprim (TMP), cefoxitin (CFOX), cefaclor, cefixim and loracarbef. MICs of bile salts were determined by a broth macrodilution procedure: sodium cholate and sodium deoxycholate were serially diluted twofold in LB broth and tubes inoculated at 5×10^5 CFU/ml. MICs of both antibiotics and bile salts were determined twice in independent experiments with reproducible results.
P1 transduction. […] DNA sequencing.

The subject of data set [2] is Escherichia coli K-12 AG100, its Mar mutant AG112 and derived fluoroquinolone-resistant mutants (acrAB+). As to the kind of experiment: MIC by broth microdilution, acrAB+ strains. Type of data set: cell-based. The following applies: Escherichia coli. The method, then: Selection of fluoroquinolone-resistant mutants. 1-AG100, 2°-AG100, 3*-AG100, 4*-AG100 and 1′-AG112, 2′-AG112, 3′-AG112 were sequential step mutants derived from AG 100 and AG112, respectively, on solid media. For each step, about 10^11 cells of an overnight culture were plated on several LB agar plates supplemented with increasing concentrations of OFL. Single colonies were further purified on OFL-supplemented agar plates. Mutant 2°-AG100 came out of one series, while mutants 3*- and 4*-AG100 came from a second series.
as §1

Data set [3] relates to Escherichia coli K-12 AG100, AG112 and derived fluoroquinolone-resistant mutants (wild-type acrAB). The following applies: whole energized cells.
In data set [4] the test system is Escherichia coli AG100, AG112 and derived mutants bearing ΔacrAB. Conditions: all strains, energized cells.

Values after ≈ are worked out from the molar mass of the structure shown. Read-outs that look alike come from different tables or passages of the source.

Turning to `O=C(O)c1cn(C2CC2)c2cc(N3CCNCC3)c(F)cc2c1=O` [CIP, ciprofloxacin], the MIC in data set [1] (strain 1-AG100, ΔacrAB) turned out to be 0.06 µg/mL (≈ 0.181 µM); in data set [1] (strain 1-AG112 (1′-AG112), ΔacrAB), 0.03 µg/mL (≈ 0.0905 µM); in data set [1] (strain 2-AG100 (2°-AG100), ΔacrAB), 0.06 µg/mL (≈ 0.181 µM); in data set [1] (strain 2-AG112 (2′-AG112), ΔacrAB), 0.03 µg/mL (≈ 0.0905 µM); in data set [1] (strain 3*-AG100, ΔacrAB) it was 0.06 µg/mL (≈ 0.181 µM); in data set [1] (strain 3-AG112 (3′-AG112), ΔacrAB) it was 0.03 µg/mL (≈ 0.0905 µM). In addition, the MIC in data set [1] (strain 4*-AG100, ΔacrAB) is 0.125 µg/mL (≈ 0.377 µM); in data set [1] (strain AG100, ΔacrAB), not above 0.015 µg/mL; in data set [1] (strain AG112, ΔacrAB), not above 0.015 µg/mL; in data set [2] (strain 1-AG100, acrAB+, read-out: MIC), 0.25 µg/mL (≈ 0.754 µM); in data set [2] (strain 1-AG112 (1′-AG112), acrAB+, read-out: MIC), 0.5 µg/mL (≈ 1.51 µM); in data set [2] (strain 2-AG100 (2°-AG100), acrAB+), 0.5 µg/mL (≈ 1.51 µM). The MIC in data set [2] (strain 2-AG112 (2′-AG112), acrAB+, read-out: MIC) was 2 µg/mL (≈ 6.04 µM); in data set [2] (strain 3*-AG100, acrAB+, read-out: MIC) it was 1 µg/mL (≈ 3.02 µM); in data set [2] (strain 3-AG112 (3′-AG112), acrAB+, read-out: MIC), 4 µg/mL (≈ 12.1 µM); in data set [2] (strain 4*-AG100, acrAB+, read-out: MIC) it was 2 µg/mL (≈ 6.04 µM); in data set [2] (strain AG100, acrAB+, read-out: MIC) it was not above 0.015 µg/mL; in data set [2] (strain AG112 (Mar mutant), acrAB+), 0.06 µg/mL (≈ 0.181 µM). Also, in data set [3], the “Time at which CIP accumulation reached a plateau” value is not above 5 min. Besides, the “Active efflux of ciprofloxacin upon deletion of AcrAB” value in data set [4] is on record as “completely aborted”; in data set [4] (listed as cfx), “completely abolished”.

(Values after patent US8012711B2, “Methods of screening for compounds that reduce microbial resistance to fluoroquinolones” (priority 1999, dated 2011).)
